# Source: PubChem BioAssay (NCI)
#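 Values below derive from 48-hour exposures of cells grown in 96-well plates, with endpoints linearly interpolated between the two concentrations bracketing the appropriate inhibition level. Abbreviation: GI50, concentration required for 50% inhibition of growth. At the TGI there is no net growth.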
# What was measured:
# Test in all cases: NCI tumour cell line growth inhibition, 48 h
# 786-0 renal = system: 786-0 renal
# A498 renal = system: A498 renal
# A549 NSCLC = system: A549 NSCLC
# ACHN renal = system: ACHN renal
# BT-549 breast = system: BT-549 breast
# CAKI-1 renal = system: CAKI-1 renal
# CCRF-CEM leukemia = system: CCRF-CEM leukemia
# COLO 205 colon = system: COLO 205 colon
# DU-145 prostate = system: DU-145 prostate
# EKVX NSCLC = system: EKVX NSCLC
# HCC-2998 colon = system: HCC-2998 colon
# HCT-116 colon = system: HCT-116 colon
# HCT-15 colon = system: HCT-15 colon
# HL-60(TB) leukemia = system: HL-60(TB) leukemia
# HOP-62 NSCLC = system: HOP-62 NSCLC
# HOP-92 NSCLC = system: HOP-92 NSCLC
# HS 578T breast = system: HS 578T breast
# HT29 colon = system: HT29 colon
# IGROV1 ovarian = system: IGROV1 ovarian
# K-562 leukemia = system: K-562 leukemia
# KM12 colon = system: KM12 colon
# LOX IMVI melanoma = system: LOX IMVI melanoma
# M14 melanoma = system: M14 melanoma
# MALME-3M melanoma = system: MALME-3M melanoma
# MCF7 breast = system: MCF7 breast
# MDA-MB-231 breast = system: MDA-MB-231 breast
# MDA-MB-435 = system: MDA-MB-435
# MOLT-4 leukemia = system: MOLT-4 leukemia
# NCI-H226 lung = system: NCI-H226 lung
# NCI-H23 lung = system: NCI-H23 lung
# NCI-H460 lung = system: NCI-H460 lung
# NCI-H522 lung = system: NCI-H522 lung
# NCI/ADR-RES ovarian = system: NCI/ADR-RES ovarian
# OVCAR-3 ovarian = system: OVCAR-3 ovarian
# OVCAR-4 ovarian = system: OVCAR-4 ovarian
# OVCAR-5 ovarian = system: OVCAR-5 ovarian
# OVCAR-8 ovarian = system: OVCAR-8 ovarian
# PC-3 prostate = system: PC-3 prostate
# RPMI-8226 leukemia = system: RPMI-8226 leukemia
# RXF 393 renal = system: RXF 393 renal
# SF-268 CNS = system: SF-268 CNS
# SF-295 CNS = system: SF-295 CNS
# SF-539 CNS = system: SF-539 CNS
# SK-MEL-2 melanoma = system: SK-MEL-2 melanoma
# SK-MEL-28 melanoma = system: SK-MEL-28 melanoma
# SK-MEL-5 melanoma = system: SK-MEL-5 melanoma
# SK-OV-3 ovarian = system: SK-OV-3 ovarian
# SN12C renal = system: SN12C renal
# SNB-19 CNS = system: SNB-19 CNS
# SNB-75 CNS = system: SNB-75 CNS
# SR leukemia = system: SR leukemia
# SW-620 colon = system: SW-620 colon
# T-47D breast = system: T-47D breast
# TK-10 renal = system: TK-10 renal
# U251 CNS = system: U251 CNS
# UACC-257 melanoma = system: UACC-257 melanoma
# UACC-62 melanoma = system: UACC-62 melanoma
# UO-31 renal = system: UO-31 renal
# MDA-N = system: MDA-N
smiles,measurement,setting,value
COc1cc(N2CCN(C(C)C)CC2)ccc1Nc1nc(Nc2ccc(F)cc2C(N)=O)c2cc[nH]c2n1,GI50,786-0 renal,1.33 µM
same,TGI,786-0 renal,5.45 µM
same,GI50,A498 renal,0.165 µM
same,TGI,A498 renal,3.65 µM
same,GI50,A549 NSCLC,0.121 µM
same,TGI,A549 NSCLC,4.17 µM
same,GI50,ACHN renal,0.502 µM
same,TGI,ACHN renal,5.2 µM
same,GI50,BT-549 breast,3.28 µM
same,TGI,BT-549 breast,6.93 µM
same,GI50,CAKI-1 renal,0.911 µM
same,TGI,CAKI-1 renal,5.29 µM
same,GI50,CCRF-CEM leukemia,0.277 µM
same,TGI,CCRF-CEM leukemia,21.3 µM
same,GI50,COLO 205 colon,0.0241 µM
same,TGI,COLO 205 colon,0.126 µM
same,GI50,DU-145 prostate,0.234 µM
same,TGI,DU-145 prostate,4.63 µM
same,GI50,EKVX NSCLC,0.48 µM
same,TGI,EKVX NSCLC,7.19 µM
same,GI50,HCC-2998 colon,0.558 µM
same,TGI,HCC-2998 colon,5.63 µM
same,GI50,HCT-116 colon,0.119 µM
same,TGI,HCT-116 colon,3.6 µM
same,GI50,HCT-15 colon,0.387 µM
same,TGI,HCT-15 colon,8.16 µM
same,GI50,HL-60(TB) leukemia,0.0594 µM
same,TGI,HL-60(TB) leukemia,4.7 µM
same,GI50,HOP-62 NSCLC,0.668 µM
same,TGI,HOP-62 NSCLC,5.26 µM
same,GI50,HOP-92 NSCLC,0.0148 µM
same,TGI,HOP-92 NSCLC,0.687 µM
same,GI50,HS 578T breast,2.67 µM
same,TGI,HS 578T breast,9.8 µM
same,GI50,HT29 colon,0.0208 µM
same,TGI,HT29 colon,2.88 µM
same,GI50,IGROV1 ovarian,0.392 µM
same,TGI,IGROV1 ovarian,6.94 µM
same,GI50,K-562 leukemia,3.31 µM
same,TGI,K-562 leukemia,15.2 µM
same,GI50,KM12 colon,3.14 µM
same,TGI,KM12 colon,7.97 µM
same,GI50,LOX IMVI melanoma,0.124 µM
same,TGI,LOX IMVI melanoma,4.63 µM
same,GI50,M14 melanoma,0.18 µM
same,TGI,M14 melanoma,4.07 µM
same,GI50,MALME-3M melanoma,0.228 µM
same,TGI,MALME-3M melanoma,5.22 µM
same,GI50,MCF7 breast,0.0154 µM
same,TGI,MCF7 breast,4.07 µM
same,GI50,MDA-MB-231 breast,2.98 µM
same,TGI,MDA-MB-231 breast,7.22 µM
same,GI50,MDA-MB-435,0.242 µM
same,TGI,MDA-MB-435,5.45 µM
same,GI50,MOLT-4 leukemia,5.24 µM
same,TGI,MOLT-4 leukemia,15.4 µM
same,GI50,NCI-H226 lung,1.11 µM
same,TGI,NCI-H226 lung,6.65 µM
same,GI50,NCI-H23 lung,0.304 µM
same,TGI,NCI-H23 lung,6.65 µM
same,GI50,NCI-H460 lung,0.0985 µM
same,TGI,NCI-H460 lung,3.72 µM
same,GI50,NCI-H522 lung,2.8 µM
same,TGI,NCI-H522 lung,6.42 µM
same,GI50,NCI/ADR-RES ovarian,3.76 µM
same,TGI,NCI/ADR-RES ovarian,11.6 µM
same,GI50,OVCAR-3 ovarian,3.08 µM
same,TGI,OVCAR-3 ovarian,6.43 µM
same,GI50,OVCAR-4 ovarian,2.98 µM
same,TGI,OVCAR-4 ovarian,7.04 µM
same,GI50,OVCAR-5 ovarian,0.245 µM
same,TGI,OVCAR-5 ovarian,6.27 µM
same,GI50,OVCAR-8 ovarian,0.363 µM
same,TGI,OVCAR-8 ovarian,5.43 µM
same,GI50,PC-3 prostate,3.75 µM
same,TGI,PC-3 prostate,12.9 µM
same,GI50,RPMI-8226 leukemia,3.69 µM
same,TGI,RPMI-8226 leukemia,12.5 µM
same,GI50,RXF 393 renal,0.857 µM
same,TGI,RXF 393 renal,5.27 µM
same,GI50,SF-268 CNS,3.36 µM
same,TGI,SF-268 CNS,7.92 µM
same,GI50,SF-295 CNS,3.99 µM
same,TGI,SF-295 CNS,10.3 µM
same,GI50,SF-539 CNS,2.76 µM
same,TGI,SF-539 CNS,6.33 µM
same,GI50,SK-MEL-2 melanoma,0.163 µM
same,TGI,SK-MEL-2 melanoma,1.77 µM
same,GI50,SK-MEL-28 melanoma,3.69 µM
same,TGI,SK-MEL-28 melanoma,7.59 µM
same,GI50,SK-MEL-5 melanoma,0.747 µM
same,TGI,SK-MEL-5 melanoma,5.28 µM
same,GI50,SK-OV-3 ovarian,0.317 µM
same,TGI,SK-OV-3 ovarian,3.03 µM
same,GI50,SN12C renal,2.54 µM
same,TGI,SN12C renal,5.9 µM
same,GI50,SNB-19 CNS,3.98 µM
same,TGI,SNB-19 CNS,11.4 µM
same,GI50,SNB-75 CNS,3.04 µM
same,TGI,SNB-75 CNS,6.32 µM
same,GI50,SR leukemia,0.0145 µM
same,TGI,SR leukemia,10.1 µM
same,GI50,SW-620 colon,0.0905 µM
same,TGI,SW-620 colon,4.17 µM
same,GI50,T-47D breast,3.49 µM
same,TGI,T-47D breast,8.2 µM
same,GI50,TK-10 renal,0.17 µM
same,TGI,TK-10 renal,4.68 µM
same,GI50,U251 CNS,2.72 µM
same,TGI,U251 CNS,6.13 µM
same,GI50,UACC-257 melanoma,0.194 µM
same,TGI,UACC-257 melanoma,5.6 µM
same,GI50,UACC-62 melanoma,2.53 µM
same,TGI,UACC-62 melanoma,6.42 µM
same,GI50,UO-31 renal,0.996 µM
same,TGI,UO-31 renal,5.28 µM
Cn1c(=Nc2ccccc2[N+](=O)[O-])sc2ccccc21,TGI,786-0 renal,> 100 µM
same,TGI,A498 renal,> 100 µM
same,TGI,A549 NSCLC,> 100 µM
same,TGI,ACHN renal,> 100 µM
same,TGI,CAKI-1 renal,> 100 µM
same,TGI,CCRF-CEM leukemia,> 100 µM
same,TGI,COLO 205 colon,> 100 µM
same,TGI,DU-145 prostate,> 100 µM
same,TGI,EKVX NSCLC,> 100 µM
same,TGI,HCC-2998 colon,> 100 µM
same,TGI,HCT-116 colon,> 100 µM
same,TGI,HCT-15 colon,> 100 µM
same,TGI,HL-60(TB) leukemia,> 100 µM
same,TGI,HOP-62 NSCLC,48.3 µM
same,TGI,HOP-92 NSCLC,61.7 µM
same,TGI,HS 578T breast,> 100 µM
same,TGI,HT29 colon,> 100 µM
same,TGI,IGROV1 ovarian,> 100 µM
same,TGI,K-562 leukemia,> 100 µM
same,TGI,KM12 colon,15.5 µM
same,TGI,LOX IMVI melanoma,> 100 µM
same,TGI,MALME-3M melanoma,> 100 µM
same,TGI,MDA-MB-231 breast,> 100 µM
same,TGI,MDA-MB-435,> 100 µM
same,TGI,MDA-N,> 100 µM
same,TGI,MOLT-4 leukemia,> 100 µM
same,TGI,NCI-H226 lung,> 100 µM
same,TGI,NCI-H23 lung,> 100 µM
same,TGI,NCI-H460 lung,> 100 µM
same,TGI,NCI-H522 lung,> 100 µM
same,TGI,NCI/ADR-RES ovarian,> 100 µM
same,TGI,OVCAR-4 ovarian,86.9 µM
same,TGI,OVCAR-5 ovarian,> 100 µM
same,TGI,OVCAR-8 ovarian,> 100 µM
same,TGI,PC-3 prostate,> 100 µM
same,TGI,RPMI-8226 leukemia,> 100 µM
same,TGI,RXF 393 renal,> 100 µM
same,TGI,SF-268 CNS,> 100 µM
same,TGI,SF-295 CNS,> 100 µM
same,TGI,SF-539 CNS,> 100 µM
same,TGI,SK-MEL-2 melanoma,> 100 µM
same,TGI,SK-MEL-28 melanoma,> 100 µM
same,TGI,SK-MEL-5 melanoma,> 100 µM
same,TGI,SK-OV-3 ovarian,97.2 µM
same,TGI,SN12C renal,> 100 µM
same,TGI,SNB-19 CNS,> 100 µM
same,TGI,SNB-75 CNS,89 µM
same,TGI,SR leukemia,> 100 µM
same,TGI,SW-620 colon,> 100 µM
same,TGI,T-47D breast,> 100 µM
same,TGI,TK-10 renal,45.2 µM
same,TGI,U251 CNS,> 100 µM
same,TGI,UACC-257 melanoma,> 100 µM
same,TGI,UACC-62 melanoma,> 100 µM
same,TGI,UO-31 renal,> 100 µM
